Assay [1] deals with human hematopoietic stem cells (CD34+). Put plainly: HbF induction and red cell maturation in CD34+ hematopoietic stem cells differentiated to red cells over 18 days (HbF by HPLC). Format: cell-based. The settings on record: for concentration that inhibits/arrests red cell maturation: co-culture from Day 7, harvest Day 18; for concentration that induces HbF: co-culture from Day 7, harvest Day 18, total HbF by HPLC. The method, then:
In an in vitro assay system, human hematopoietic stem cells (CD34^+) from a single donor are cultured to differentiate into red cells over the course of 18 days using standard culture methods with eythrogenic growth factors. Three test articles were co-cultured beginning on Day 7: the compound described in Example 11SS, a reversible inhibitor of LSD1; 4-(2-(4-aminopiperidin-1-yl)-5-(4-methoxyphenyl)-1-methyl-6-oxo-1,6-dihydropyrimidin-4-yl)-2-fluorobenzonitrile, a potent reversible inhibitor of LSD1; and 2-(((trans)-2-(4-(benzyloxy)phenyl)cyclopropyl)amino)-1-(4-methylpiperazin-1-yl) ethanone dihydrochloride (RN-1), a commercially available potent […] inhibitor of LSD1. Cells were harvested at Day 18 and total HbF was assayed by HPLC, e.g., using a C20 reverse phase column. 4-(2-(4-aminopiperidin-1-yl)-5-(4-methoxyphenyl)-1-methyl-6-oxo-1,6-dihydropyrimidin-4-yl)-2-fluorobenzonitrile and RN-1 both induce HbF at 3 nM but inhibit red cell maturation at 10 nM.

For assay [2], the target named is LSD1 (Homo sapiens, UniProt O60341). Put plainly: LSD1 fluorescence coupling enzyme assay (HRP/Amplex Red, H3(1-21)K4me2 peptide), 10-dose IC50. The settings on record: 10 μM histone H3(1-21)K4me2 peptide substrate, 3-fold serial dilution from 100 μM. Format: biochemical. In short, it runs like this:
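Fluorescence coupled assay: LSD1 demethylation of 10 μM H3(1-21)K4me2 peptide produces FAD-dependent H2O2, detected via HRP/Amplex Red as resorufin (Ex/Em 535/590 nm). IC50 from 10 doses, 3-fold serial dilution from 100 μM, in duplicate.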

Assay [3] concerns MV4;11 cells. Briefly: Cell Titer-Glo cell growth inhibition in MV4;11 cell line (Day 5 / Day 10). It counts as cell-based. The settings on record: Homo sapiens. A digest of the protocol:
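Cells seeded at 3750/well and treated with a 10-point, 4-fold dose curve from 0 to 50 µM; ATP-based luminescence viability read at Day 5. A portion is reseeded into fresh compound and media for 5 more days, read at Day 10; IC50 derived from luminescence.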

[4] abbreviates: MV4-11, 120 h, Day 5, read-out: Cell Titer-Glo IC50 (5 d).
The mark [5] stands for this setting: MV4-11, 240 h, Day 10, read-out: Cell Titer-Glo IC50 (10 d).

This note sets out measurements from patent US20250032454A1, “KDM1A INHIBITORS FOR THE TREATMENT OF DISEASE” (Imago Biosciences, Inc., priority 2021, published 2025).

Like-named read-outs stand apart in the source and are kept apart here.

Regarding `COc1ccc(-c2c(-c3ccc(C#N)c(F)c3)nc(N3CCC(N)CC3)n(C)c2=O)cc1` [4-(2-(4-aminopiperidin-1-yl)-5-(4-methoxyphenyl)-1-methyl-6-oxo-1,6-dihydropyrimidin-4-yl)-2-fluorobenzonitrile], in assay [1], the “concentration that inhibits/arrests red cell maturation” value is 10 nM and the “concentration that induces HbF” value came to 3 nM.
For `COc1ccc(-n2nc(NC[C@H]3CCC[C@H](N)C3)cc2-c2ccc(C#N)c(F)c2)cc1` [Example 11SS, 4-(3-((((1S,3S)-3-aminocyclohexyl)methyl)amino)-1-(4-methoxyphenyl)-1H-pyrazol-5-yl)-2-fluorobenzonitrile], the IC50 is less than 500 nM in assay [2], 500 to 1000 nM in assay [3] (setting [4]) and less than 500 nM in assay [3] (setting [5]). Besides, in assay [1], the “concentration that inhibits/arrests red cell maturation” value was 300 nM. For the same compound, the “concentration that induces HbF” value in assay [1] was “a higher concentration”.
For `N#Cc1ccc(-c2cc(NC[C@H]3CCC[C@H](N)C3)nn2-c2ccc(-c3cnn(CCO)c3)cc2)cc1F` [Example 56, 4-(3-((((1S,3S)-3-aminocyclohexyl)methyl)amino)-1-(4-(1-(2-hydroxyethyl)-1H-pyrazol-4-yl)phenyl)-1H-pyrazol-5-yl)-2-fluorobenzonitrile], the half-inhibitory concentration (IC50) in assay [2], in assay [3] (setting [4]) and in assay [3] (setting [5]) was less than 500 nM throughout.
On to `N#Cc1ccc(-c2cc(NC[C@H]3CCC[C@H](N)C3)nn2-c2cccc(-c3cn[nH]c3)c2)cc1F` [Example 53, 4-(1-(3-(1H-pyrazol-4-yl)phenyl)-3-((((1S,3S)-3-aminocyclohexyl)methyl)amino)-1H-pyrazol-5-yl)-2-fluorobenzonitrile], for which the IC50 in assay [2] was less than 500 nM; in assay [3] (setting [4]) it was 500 to 1000 nM; in assay [3] (setting [5]), less than 500 nM.
As for `N#Cc1ccc(-c2cc(NC[C@H]3CCC[C@H](N)C3)nn2-c2ccc3nn(-c4ccccc4)cc3c2)cc1F` [Example 16, 4-(3-((((1S,3S)-3-aminocyclohexyl)methyl)amino)-1-(2-phenyl-2H-indazol-5-yl)-1H-pyrazol-5-yl)-2-fluorobenzonitrile], the IC50 in assay [2], in assay [3] (setting [4]) and in assay [3] (setting [5]) was less than 500 nM in each case.
With `COc1ccc(-n2nc(NCC3CC3N)cc2-c2ccc(C#N)c(F)c2)cc1` (single isomer, unassigned) [Example 29a, 4-(3-(((2-aminocyclopropyl)methyl)amino)-1-(4-methoxyphenyl)-1H-pyrazol-5-yl)-2-fluorobenzonitrile], the results for the IC50 in assay [2], in assay [3] (setting [4]) and in assay [3] (setting [5]) were 500 to 1000 nM, 1000 to 10000 nM and less than 500 nM, respectively.
`N#Cc1ccc(-c2cc(NCC3CCCNCC3)nn2-c2ccc(N3CCS(=O)(=O)CC3)cc2)cc1F` (centres unmarked) [Example 26, 4-(3-((azepan-4-ylmethyl)amino)-1-(4-(1,1-dioxidothiomorpholino)-phenyl)-1H-pyrazol-5-yl)-2-fluorobenzonitrile]: the IC50 in assay [2], in assay [3] (setting [4]) and in assay [3] (setting [5]) was less than 500 nM each time.
For `COc1ccc(-n2nc(NC[C@H]3C[C@@H](N)C3)cc2-c2ccc(C#N)c(F)c2)cc1` [Example 41, 4-(3-((((1s,3s)-3-aminocyclobutyl)methyl)amino)-1-(4-methoxyphenyl)-1H-pyrazol-5-yl)-2-fluorobenzonitrile], the IC50 in assay [2], in assay [3] (setting [4]) and in assay [3] (setting [5]) was less than 500 nM throughout.
Turning to `CN1CCN(C(=O)CN[C@@H]2C[C@H]2c2ccc(OCc3ccccc3)cc2)CC1.Cl.Cl` (relative stereo) [RN-1, 2-(((trans)-2-(4-(benzyloxy)phenyl)cyclopropyl)amino)-1-(4-methylpiperazin-1-yl) ethanone dihydrochloride, reference compound], in assay [1], the “concentration that inhibits/arrests red cell maturation” value came out at 10 nM and the “concentration that induces HbF” value was 3 nM.
Consider `COc1ccc(-n2nc(NC[C@H]3CCC[C@H](N)C3)cc2-c2ccc(C(F)(F)F)c(F)c2)cc1` [Example 18, N-(((1S,3S)-3-aminocyclohexyl)methyl)-5-(3-fluoro-4-(trifluoromethyl)phenyl)-1-(4-methoxyphenyl)-1H-pyrazol-3-amine], for which the 50% inhibitory concentration (IC50) in assay [2] fell in the range of 1000 to 10000 nM; in assay [3] (setting [4]), 500 to 1000 nM; in assay [3] (setting [5]), 500 to 1000 nM.
Regarding `Cn1ncc2cc(-n3nc(NCC4CCCC(N)C4)cc3-c3ccc(C#N)c(F)c3)ccc21` (racemic) [Example 7, rac-4-(3-(((3-aminocyclohexyl)methyl)amino)-1-(1-methyl-1H-indazol-5-yl)-1H-pyrazol-5-yl)-2-fluorobenzonitrile], the IC50 in assay [2] and in assay [3] (setting [4]) was less than 500 nM throughout.
For `COc1ccc(-n2nc(NCC3CC3N)cc2-c2ccc(C#N)c(F)c2)cc1` (racemic) [Example 29, (±)-trans-4-(3-(((2-aminocyclopropyl)methyl)amino)-1-(4-methoxyphenyl)-1H-pyrazol-5-yl)-2-fluorobenzonitrile], the IC50 in assay [2], in assay [3] (setting [4]) and in assay [3] (setting [5]) was 1000 to 10000 nM in each case.
As for `Cn1cc2cc(-n3nc(NC[C@@H]4CCCNC4)cc3-c3ccc(C#N)c(F)c3)ccc2n1` (single isomer, unassigned) [Example 9a], the figures for the IC50 in assay [2] and in assay [3] (setting [4]) were 1000 to 10000 nM and less than 500 nM, respectively.
Regarding `Cn1nnc2cc(-n3nc(NC[C@H]4CCC[C@H](N)C4)cc3-c3ccc(C#N)c(F)c3)ccc21` [Example 68, 4-(3-((((1S,3S)-3-aminocyclohexyl)methyl)amino)-1-(1-methyl-1H-benzo[d][1,2,3]triazol-5-yl)-1H-pyrazol-5-yl)-2-fluorobenzonitrile], the IC50 in assay [2], in assay [3] (setting [4]) and in assay [3] (setting [5]) was less than 500 nM each time.
Consider `Cn1cc2cc(-n3nc(NC[C@@H]4CCC[C@@H](N)C4)c(Cl)c3-c3ccc(C#N)c(F)c3)ccc2n1` [Example 36, 4-(3-((((1R,3R)-3-aminocyclohexyl)methyl)amino)-4-chloro-1-(2-methyl-2H-indazol-5-yl)-1H-pyrazol-5-yl)-2-fluorobenzonitrile], for which the IC50 in assay [2] is 1000 to 10000 nM; in assay [3] (setting [4]), 500 to 1000 nM; in assay [3] (setting [5]), less than 500 nM.
As to `Cn1cc2cc(-n3nc(NCC4CCNCC4)cc3-c3ccc(C#N)c(F)c3)ccc2n1` [Example 10, 2-Fluoro-4-(1-(2-methyl-2H-indazol-5-yl)-3-((piperidin-4-ylmethyl)amino)-1H-pyrazol-5-yl)benzonitrile], the half-maximal inhibitory concentration (IC50) in assay [2] and in assay [3] (setting [4]) was less than 500 nM in each case.
Take `Cc1ccc(-n2nc(NC[C@H]3CCC[C@H](N)C3)cc2-c2ccc(C#N)c(F)c2)cc1` [Example 12SS, 4-(3-((((1S,3S)-3-aminocyclohexyl)methyl)amino)-1-(p-tolyl)-1H-pyrazol-5-yl)-2-fluorobenzonitrile]: the half-inhibitory concentration (IC50) in assay [2], in assay [3] (setting [4]) and in assay [3] (setting [5]) was less than 500 nM each time.
For the compound `N#Cc1ccc(-c2cc(NC[C@H]3CCC[C@H](N)C3)nn2-c2ccc3c(cnn3-c3ccccc3)c2)cc1F` [Example 15, 4-(3-((((1S,3S)-3-aminocyclohexyl)methyl)amino)-1-(1-phenyl-1H-indazol-5-yl)-1H-pyrazol-5-yl)-2-fluorobenzonitrile], the 50% inhibitory concentration (IC50) in assay [2], in assay [3] (setting [4]) and in assay [3] (setting [5]) was less than 500 nM each time.
For the compound `N#Cc1ccc(-c2cc(NC[C@H]3CCC[C@H](N)C3)nn2-c2cccc(N3CCS(=O)(=O)CC3)c2)cc1F` [Example 51, 4-(3-((((1S,3S)-3-aminocyclohexyl)methyl)amino)-1-(3-(1,1-dioxidothiomorpholino)phenyl)-1H-pyrazol-5-yl)-2-fluorobenzonitrile], the half-inhibitory concentration (IC50) is 1000 to 10000 nM in assay [2], 1000 to 10000 nM in assay [3] (setting [4]) and less than 500 nM in assay [3] (setting [5]).
Take `Cn1cc2cc(-n3nc(NC[C@H]4CCNC4)cc3-c3ccc(C#N)c(F)c3)ccc2n1` [Example 21S, (S)-2-fluoro-4-(1-(2-methyl-2H-indazol-5-yl)-3-((pyrrolidin-3-ylmethyl)amino)-1H-pyrazol-5-yl)benzonitrile]: the IC50 in assay [2] and in assay [3] (setting [4]) was less than 500 nM throughout.
